# Counter-ions that a name gives are not always drawn.
# Legend:
# BCRP = target: T1, BCRP (Homo sapiens, UniProt Q9UNQ0); assay: Membrane vesicle transport inhibition assay: BCRP-mediated [3H]-E1S uptake
# T1 sequence (Q9UNQ0 1-655): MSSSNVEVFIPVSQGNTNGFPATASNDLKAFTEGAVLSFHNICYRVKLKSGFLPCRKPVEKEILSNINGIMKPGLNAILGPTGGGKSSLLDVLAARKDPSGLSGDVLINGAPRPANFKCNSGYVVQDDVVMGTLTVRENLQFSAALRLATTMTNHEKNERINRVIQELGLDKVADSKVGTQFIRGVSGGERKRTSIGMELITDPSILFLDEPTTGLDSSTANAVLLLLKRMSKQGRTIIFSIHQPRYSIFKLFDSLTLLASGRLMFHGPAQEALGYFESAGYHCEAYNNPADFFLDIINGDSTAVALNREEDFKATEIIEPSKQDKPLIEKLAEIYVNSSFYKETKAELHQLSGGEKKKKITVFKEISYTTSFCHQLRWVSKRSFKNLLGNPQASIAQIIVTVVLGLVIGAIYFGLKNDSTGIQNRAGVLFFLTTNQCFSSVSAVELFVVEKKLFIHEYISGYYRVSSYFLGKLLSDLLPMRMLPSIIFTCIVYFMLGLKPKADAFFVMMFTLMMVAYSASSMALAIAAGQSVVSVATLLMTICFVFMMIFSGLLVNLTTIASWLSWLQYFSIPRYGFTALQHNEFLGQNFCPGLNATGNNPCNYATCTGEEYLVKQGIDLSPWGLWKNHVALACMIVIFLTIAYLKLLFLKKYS
# Method: (§1) Human embryonic kidney (HEK293; purchased at American Type Culture Collection, Manassas, VA) cells were cultured in Dulbecco's modified Eagle's medium (Invitrogen life sciences, Breda, the Netherlands) containing 10% (v/v) fetal calf serum (MP Biomedicals, Uden, the Netherlands) at 37°C in a 5% (v/v) CO2 atmosphere. To functionally overexpress MRP4 and BCRP, HEK293 cells were transduced with baculoviruses of human MRP4, BCRP or enhanced yellow fluorescent protein (EYFP), generated via the Bac-to-Bac system (Invitrogen) as previously described. To transduce HEK293 cells, they were cultured in 500 cm^2 flasks until 70% confluence. Subsequently, medium was removed and 10 ml of virus and 25 ml of medium were added and incubated for 30 min at 37°C. Next, 50 ml of medium was added and after 2 h of transduction 5 mM sodium butyrate was added.
# (§2) Three days after transduction, cells were harvested and pelleted by centrifugation (30 min at 4,000 x g). Afterwards, the cells were resuspended in ice-cold hypotonic TS buffer (0.5 mM sodium phosphate, 0.1 mM EDTA, pH 7.0) containing protease inhibitors (100 µM phenylmethylsulfonyl fluoride, 5 µg/ml aprotinin, 5 µg/ml leupeptin, 1 µg/ml pepstatin and 1 µg/ml E-64) and shaken for 30 min at 4°C. Cells were then centrifuged at 100,000 x g for 30 min at 4°C. Subsequently, pellet was resuspended in ice-cold isotonic buffer (10 mM Tris-HEPES and 250 mM sucrose, pH 7.4, adjusted with HEPES) supplemented with protease inhibitors and homogenized using a tight fitting Dounce homogenizer followed by centrifugation (1,000 x g, 20 min, 4°C). Afterwards, supernatant was centrifuged at 100,000 x g for 1 h at 4°C. The resulting pellet was resuspended in isotonic buffer and passed through a 27-gauge needle 25 times to obtain crude membrane vesicles. The protein content of samples was determined using the Bio-Rad protein assay (Veenendaal, the Netherlands), according to manufacturers recommendations. Vesicles were frozen in liquid nitrogen and stored at −80°C until use. The orientation of the membrane vesicles was not determined, since ATP-dependent uptake occurs only in inside-out vesicles.
# (§3) A rapid filtration technique was used to study the uptake of [^3H]-MTX and [^3H]-E1S into MRP4 or BCRP membrane vesicles, as previously described. In short, 25 µl of TS buffer containing 4 mM ATP, 10 mM MgCl2 and radiolabeled substrate was added to 5 µl of the membrane vesicles (1.5 mg/ml). The transport assay was performed in the absence or presence of various concentrations of uremic toxins to evaluate the inhibitory effects of these compounds on MRP4-mediated [^3H]-MTX uptake and BCRP-mediated [^3H]-E1S uptake. […] Uptake was stopped by placing the samples on ice and the addition of 150 µl ice cold TS buffer. Subsequently, the samples were transferred to a 96 well filter plate (Millipore, Etten-leur, the Netherlands) pre-incubated with TS buffer and filtered using a Multiscreen HTS-Vacuum Manifold filtration device (Millipore). Afterwards, 2 ml of scintillation liquid was added to each filter and radioactivity was determined using liquid scintillation counting. As negative controls ATP was substituted for AMP and EYFP-membrane vesicles were used. Each experiment was performed in triplicates.
# (§4) Statistics were performed using GraphPad Prism 5.02 via an unpaired t test or a Kruskal-Wallis test followed by a Dunn's Multiple Comparison test. Differences between groups were considered to be statistically significant when p<0.05. The mean IC50 and IC20 values were calculated from the inhibition curves used for the Dixon analysis and to determine the inhibition constant (Ki) from the Dixon plots. Transport inhibition studies were performed in triplicate and repeated at least three times.
# [1] = set-up: method as in PMID 8832487, PMID 10052856; conditions: isolated perfused rat kidney, secretory transport; cited from earlier work
# MRP4 = target: T2, MRP4 (Homo sapiens, UniProt O15439); assay: Membrane vesicle transport inhibition assay: MRP4-mediated [3H]-MTX uptake
# T2 sequence (O15439 1-1325): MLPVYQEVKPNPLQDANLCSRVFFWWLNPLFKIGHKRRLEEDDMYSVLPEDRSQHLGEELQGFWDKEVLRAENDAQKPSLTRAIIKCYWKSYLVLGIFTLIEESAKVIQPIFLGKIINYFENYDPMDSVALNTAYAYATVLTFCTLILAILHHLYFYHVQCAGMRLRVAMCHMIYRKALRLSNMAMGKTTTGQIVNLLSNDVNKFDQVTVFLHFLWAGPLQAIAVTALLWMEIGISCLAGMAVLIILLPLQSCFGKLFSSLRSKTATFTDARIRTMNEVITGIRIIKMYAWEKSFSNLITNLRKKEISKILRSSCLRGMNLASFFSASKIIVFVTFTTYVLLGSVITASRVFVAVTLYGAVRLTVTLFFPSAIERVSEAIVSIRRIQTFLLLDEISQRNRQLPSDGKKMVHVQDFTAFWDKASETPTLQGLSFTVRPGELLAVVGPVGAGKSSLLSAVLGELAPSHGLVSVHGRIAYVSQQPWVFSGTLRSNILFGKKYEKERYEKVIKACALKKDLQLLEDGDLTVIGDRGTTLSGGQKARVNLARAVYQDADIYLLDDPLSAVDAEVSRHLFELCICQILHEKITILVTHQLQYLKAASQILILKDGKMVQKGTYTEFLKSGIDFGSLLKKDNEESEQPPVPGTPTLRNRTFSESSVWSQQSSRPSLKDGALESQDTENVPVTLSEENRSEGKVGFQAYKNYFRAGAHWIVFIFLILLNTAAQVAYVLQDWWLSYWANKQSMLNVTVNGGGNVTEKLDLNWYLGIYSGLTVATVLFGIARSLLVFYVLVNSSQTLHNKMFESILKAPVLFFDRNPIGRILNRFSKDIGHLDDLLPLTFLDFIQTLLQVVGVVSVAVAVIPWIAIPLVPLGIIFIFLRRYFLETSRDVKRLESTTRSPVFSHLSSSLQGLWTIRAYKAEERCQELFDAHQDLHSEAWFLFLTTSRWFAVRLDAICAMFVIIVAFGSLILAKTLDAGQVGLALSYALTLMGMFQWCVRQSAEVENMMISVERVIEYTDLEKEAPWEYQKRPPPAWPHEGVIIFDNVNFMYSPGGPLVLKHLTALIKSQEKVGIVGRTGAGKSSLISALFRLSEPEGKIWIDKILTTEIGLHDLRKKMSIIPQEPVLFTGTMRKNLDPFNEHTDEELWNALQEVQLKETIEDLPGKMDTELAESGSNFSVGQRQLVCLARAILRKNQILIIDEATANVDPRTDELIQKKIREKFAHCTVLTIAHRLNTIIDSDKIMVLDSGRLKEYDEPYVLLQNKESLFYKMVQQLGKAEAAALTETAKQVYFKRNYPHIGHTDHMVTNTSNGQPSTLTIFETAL
# Method: as §1
# as §2, with “Subsequently, pellet was resuspended in ice-cold isotonic buffer (10 mM Tris-HEPES and 250 mM sucrose, pH 7.4, adjusted with HEPES) supplemented with protease inhibitors and homogenized using a tight fitting Dounce homogenizer followed by centrifugation (1,000 x g, 20 min, 4°C).” left out, “The resulting pellet was resuspended in isotonic buffer and passed through a 27-gauge needle 25 times to obtain crude membrane vesicles.” left out
# as §3
# as §4, with “Differences” for “Statistics were performed using GraphPad Prism 5.02 via an unpaired t test or a Kruskal-Wallis test followed by a Dunn's Multiple Comparison test. Differences”
structure (smiles),measurement,setting,value
"N.[3H]C1c2cc(OS(=O)(=O)O)ccc2[C@H]2CC[C@]3(C)C(=O)CC[C@H]3[C@@H]2C1[3H] (stereo partly drawn) [[^3H]-E1S, [6′,7′-^3H(n)]-estrone-sulfate ammonium salt, reference compound]",ATP-dependent uptake compared to EYFP controls,BCRP; BCRP-overexpressing vesicles vs EYFP controls,24 fold
same,"ATP-dependent uptake, average rate","BCRP; BCRP-overexpressing vesicles, no inhibitor",15.5 pmol/mg/min
Cc1ccc(C(=O)NCC(=O)O)cc1 [4-methyl hippuric acid],Level in kidney tissue compared to the perfusate,[1],600 times
"CN(Cc1cnc2nc(N)nc(N)c2n1)c1ccc(C(=O)N[C@@H](CCC(=O)O)C(=O)O)cc1 [[^3H]-MTX, [3′,5′,7′-^3H(n)]-methotrexate disodium salt, reference compound]",ATP-dependent uptake compared to EYFP vesicles,MRP4; MRP4-overexpressing vesicles vs EYFP vesicles,11 fold
same,"ATP-dependent uptake, average rate","MRP4; MRP4-overexpressing vesicles, no inhibitor",1.3 pmol/mg/min
Cc1ccccc1C(=O)NCC(=O)O [2-methyl hippuric acid],Level in kidney tissue compared to the perfusate,[1],175 times
